System: SK-RC-52.hFAP tumors
Experiment: Quantitative biodistribution in SK-RC-52.hFAP tumor bearing mice
Assay type: in vivo, mouse (female athymic Balb/c AnNRj-Foxn1)
Conditions: i.v. 250 nmol/kg, 50 MBq/kg
Method: SK-RC-52.hFAP were grown to 80% confluence in RPMI-1640 with 10% fetal bovine serum (FBS) and 1% antibiotic-antimycotic and detached with Trypsin-EDTA (ethylenediaminetetraacetic acid) 0.05%. Tumor cells were resuspended in Hanks' Balanced Salt Solution medium. Aliquots of 5 million cells (100 μL of suspension) were injected subcutaneously in the right flank of female athymic Balb/c AnNRj-Foxn1 mice (6 to 8 wk of age).
Radiolabeling of ESV6-DOTAGA, Bi-ESV6-DOTAGA, Tri-ESV6-DOTAGA, Tetra-ESV6-DOTAGA, Hexa-ESV6-DOTAGA, Octa-ESV6-DOTAGA and FAP-2286 with lutetium-177 (a therapeutic radionuclide) was performed with different specific activities for three different studies (biodistribution, therapy and dose optimization).
Prior to the biodistribution study, precursors (100 nmol) were dissolved in 100 μL of milliQ water and diluted with 200 μL of sodium acetate (1 M in water, pH=4.5). 20 MBq of ^177Lu solution were added and the mixture was heated at 90 °C for 10 minutes, followed by dilution with […] of PBS to achieve final volume of 2 mL (20 doses of 100 μL each).
ESV6-DOTAGA, Bi-ESV6-DOTAGA, Tri-ESV6-DOTAGA, Tetra-ESV6-DOTAGA, Hexa-ESV6-DOTAGA, Octa-ESV6-DOTAGA and FAP-2286 were radiolabeled with ^177Lu as described above. Tumors were allowed to grow to an average volume of 300 mm^3. Mice were randomized and injected intravenously with radiolabeled preparations of ^177Lu-ESV6, ^177Lu-Bi-ESV6, ^177Lu-Tri-ESV6, Tetra-ESV6-DOTAGA, Hexa-ESV6-DOTAGA, Octa-ESV6-DOTAGA or ^177Lu-FAP-2286 (250 nmol/kg; 50 MBq/kg). Mice were euthanized at different time-points after the intravenous injection by CO2 asphyxiation. Tumors, organs, and blood were collected, weighted, and radioactivity was measured with a Packard Cobra Gamma Counter. Values are expressed as percent ID/g±SD [FIG. 4]. The % ID/g in the tumors was corrected considering the SK-RC-52.hFAP tumor growth rate.
Quantitative in vivo biodistribution of ^177Lu-ESV6-DOTAGA, ^177Lu-Bi-ESV6-DOTAGA, ^177Lu-Tri-ESV6-DOTAGA, ^177Lu-FAP-2286, Tetra-ESV6-DOTAGA, Hexa-ESV6-DOTAGA and Octa-ESV6-DOTAGA at different time points after intravenous administration (250 nmol/kg, 50 MBq/kg) in mice bearing SK-RC-52.hFAP tumors, are shown in Tables 1 to 4 and 10 to 12. Data are reported as % ID/g±standard deviation.
Tumor-to-organ ratios of ^177Lu-ESV6-DOTAGA, ^177Lu-Bi-ESV6-DOTAGA, ^177Lu-Tri-ESV6-DOTAGA, ^177Lu-FAP-2286, Tetra-ESV6-DOTAGA, Hexa-ESV6-DOTAGA and Octa-ESV6-DOTAGA, at different time points after intravenous administration (250 nmol/kg, 50 MBq/kg) in mice bearing SK-RC-52.hFAP tumors, are shown in Tables 5 to 8 and 13 to 15. Avg.=average; Std.d=standard deviation.

N#C[C@@H]1CC(F)(F)CN1C(=O)CNC(=O)c1ccnc2c(NC(=O)CCC(=O)NCCNC(=O)CCOCC(COCCC(=O)NCCNC(=O)CCC(=O)Nc3cccc4c(C(=O)NCC(=O)N5CC(F)(F)C[C@H]5C#N)ccnc34)(COCCC(=O)NCCNC(=O)CCC(=O)Nc3cccc4c(C(=O)NCC(=O)N5CC(F)(F)C[C@H]5C#N)ccnc34)NC(=O)CCOCC(COCCC(=O)NC(COCCC(=O)NCCNC(=O)CCC(=O)Nc3cccc4c(C(=O)NCC(=O)N5CC(F)(F)C[C@H]5C#N)ccnc34)(COCCC(=O)NCCNC(=O)CCC(=O)Nc3cccc4c(C(=O)NCC(=O)N5CC(F)(F)C[C@H]5C#N)ccnc34)COCCC(=O)NCCNC(=O)CCC(=O)Nc3cccc4c(C(=O)NCC(=O)N5CC(F)(F)C[C@H]5C#N)ccnc34)NC(=O)CCC(C(=O)O)N3CCN(CC(=O)[O-])CCN(CC(=O)[O-])CCN(CC(=O)[O-])CC3)cccc12.[177Lu+3] (stereo partly drawn) [^177Lu-Hexa-ESV6-DOTAGA]
Tumor to organs ratio, Blood (6 h): 7.84
Injected dose per gram, Blood (6 h post injection): 0.36 % ID/g
Tumor to organs ratio, Blood (24 h): 17.77
Injected dose per gram, Blood (24 h post injection): 0.10 % ID/g
Tumor to organs ratio, Blood (96 h): 85.06
Injected dose per gram, Blood (96 h post injection): 0.02 % ID/g
Tumor to organs ratio, Heart (6 h): 8.50
Injected dose per gram, Heart (6 h post injection): 0.33 % ID/g
Tumor to organs ratio, Heart (24 h): 7.90
Injected dose per gram, Heart (24 h post injection): 0.23 % ID/g
Tumor to organs ratio, Heart (96 h): 8.99
Injected dose per gram, Heart (96 h post injection): 0.16 % ID/g
Tumor to organs ratio, Intestine (6 h): 13.86
Injected dose per gram, Intestine (6 h post injection): 0.24 % ID/g
Tumor to organs ratio, Intestine (24 h): 20.76
Injected dose per gram, Intestine (24 h post injection): 0.10 % ID/g
Tumor to organs ratio, Intestine (96 h): 20.47
Injected dose per gram, Intestine (96 h post injection): 0.07 % ID/g
Tumor to organs ratio, Kidney (6 h): 5.24
Injected dose per gram, Kidney (6 h post injection): 0.53 % ID/g
Tumor to organs ratio, Kidney (24 h): 3.37
Injected dose per gram, Kidney (24 h post injection): 0.57 % ID/g
Tumor to organs ratio, Kidney (96 h): 0.99
Injected dose per gram, Kidney (96 h post injection): 1.37 % ID/g
Tumor to organs ratio, Liver (6 h): 0.04
Injected dose per gram, Liver (6 h post injection): 62.54 % ID/g
Tumor to organs ratio, Liver (24 h): 0.03
Injected dose per gram, Liver (24 h post injection): 53.45 % ID/g
Tumor to organs ratio, Liver (96 h): 0.03
Injected dose per gram, Liver (96 h post injection): 49.80 % ID/g
Tumor to organs ratio, Lung (6 h): 0.43
Injected dose per gram, Lung (6 h post injection): 6.91 % ID/g
Tumor to organs ratio, Lung (24 h): 0.34
Injected dose per gram, Lung (24 h post injection): 5.33 % ID/g
Tumor to organs ratio, Lung (96 h): 1.10
Injected dose per gram, Lung (96 h post injection): 1.38 % ID/g
Tumor to organs ratio, Muscle (6 h): 9.52
Injected dose per gram, Muscle (6 h post injection): 0.66 % ID/g
Tumor to organs ratio, Muscle (24 h): 13.70
Injected dose per gram, Muscle (24 h post injection): 0.14 % ID/g
Tumor to organs ratio, Muscle (96 h): 35.84
Injected dose per gram, Muscle (96 h post injection): 0.05 % ID/g
Tumor to organs ratio, Spleen (6 h): 0.07
Injected dose per gram, Spleen (6 h post injection): 41.26 % ID/g
Tumor to organs ratio, Spleen (24 h): 0.04
Injected dose per gram, Spleen (24 h post injection): 47.44 % ID/g
Tumor to organs ratio, Spleen (96 h): 0.04
Injected dose per gram, Spleen (96 h post injection): 38.61 % ID/g
Tumor to organs ratio, Tail (6 h): 4.76
Injected dose per gram, Tail (6 h post injection): 0.70 % ID/g
Tumor to organs ratio, Tail (24 h): 1.39
Injected dose per gram, Tail (24 h post injection): 1.65 % ID/g
Tumor to organs ratio, Tail (96 h): 2.03
Injected dose per gram, Tail (96 h post injection): 1.02 % ID/g
Injected dose per gram, Tumor (6 h post injection): 2.77 % ID/g
Injected dose per gram, Tumor (24 h post injection): 1.80 % ID/g
Injected dose per gram, Tumor (96 h post injection): 1.36 % ID/g

Source: US20260364214A1, “MULTIVALENT FIBROBLAST ACTIVATION PROTEIN LIGANDS FOR TARGETED DELIVERY APPLICATIONS” (Philochem AG, priority 2022, published 2026)
